Data: patent publication US20220030896A2, “CHOLINE ESTER-CONTAINING COMPOSITION FOR ORAL INGESTION” (Shinshu University, priority 2016, published 2022)

Experiments:
[1] = system: spontaneously hypertensive rats (SHR); conditions: purified compound, SHRs, single oral administration; cited from earlier work
[2] = system: spontaneously hypertensive rats (SHR); test: Single oral administration test in spontaneously hypertensive rats (tail cuff blood pressure, heart rate); format: in vivo, rat; conditions: SHRs after 12 hours of fasting
Method: The lyophilized eggplant powder was prepared by washing a 'Senshu' water eggplant from […], Osaka-fu with water, by sterilizing the eggplant with hypochlorous acid, and by finely grinding the edible part after lyophilisation. […] In order to compare the blood pressure-lowering effect, an administration test of an AcCh standard sample of 1.00×10^-9 mol/kg was performed in the same manner and the systolic blood pressure was measured. To a control group only water was administered under the same conditions. 0, 3, 6, 9, and 24 hours after the oral administration, systolic blood pressure, diastolic blood pressure and heart rate were measured by the tail cuff method using the non-invasive blood pressure measuring instrument Softron BP-98A (Softron Co., Ltd., Tokyo).

[3] = Change over time of AcCh amount in aqueous pH solutions (standard sample); format: physicochemical; conditions: pH 4.1 to pH 3.1, after 12 days
Method: A method for stabilizing choline esters in eggplants was examined. […] Therefore, firstly, the concentration change over time of an AcCh standard sample was examined under neutral and acidic conditions. The neutral solution (pH 7.0) was a phosphate buffer solution, and the acidic solutions (pH 4.1, pH 3.6, pH 3.1, pH 2.6) were prepared by adding acetic acid; the pH solutions with an AcCh concentration of 1.9 mg/mL were allowed to remain at ambient temperature (23 to 25° C.) for 0, 3, 6, 12 days, and then the AcCh content was quantified.

[4] = system: spontaneously hypertensive rats (SHR); test: Repeated oral administration test of AcCh in SHR that did not fast; format: in vivo, rat; conditions: in SHRs, weight assumed 370 g
From the text: (§1) This AcCh dose at which a blood pressure-lowering effect occurred in SHRs in normal condition upon oral ingestion was extrapolated to humans using Kleiber's law (Non-Patent Document 22). According to Kleiber's law, the mammalian metabolic rate is assumed to be proportional to the ¾ power of body weight, assuming the SHR weight to be 370 g and human weight to be 60 kg, the effective dose for humans is estimated to be 45.4 times the effective dose for SHRs.
(§2) When this AcCh dose was extrapolated to humans using Kleiber's law (Non-Patent Document 22), the upper limit of the daily human effective dose was 3.36×10^−6 mol (491 μg). Therefore, the daily effective dose for humans with high blood pressure having genetic characteristics such as SHRs was estimated to be in the range of 5 to 500 μg.

humans = test: Extrapolation of effective AcCh dose from SHR to humans by Kleiber's law; parameters: species or system human
From the text: as §1, §2

[5] = system: thoracic aorta ring specimens of SHR; test: Vascular isometric tension measurement test (phenylephrine-constricted thoracic aorta rings); parameters: species or system rat; conditions: standard sample
Method: The ground eggplant samples used for the experiment were prepared as follows. […] 14-week-old male SHRs (body weight 320 to 346 g) were put to death by laparotomy and exsanguination under ether anaesthesia, and the thoracic aorta was quickly removed. The isolated aorta was immersed in physiological saline and the blood was thoroughly rinsed off, and then the connective tissue and adipose tissue attached to the blood vessel were removed in a Krebs-Henseleit solution to prepare a ring specimen with a width of about 2 to 3 mm. The resulting ring specimens were attached inside an organ bus of an isometric tension test device (UFER UC-05[…]., Kyoto) filled with Krebs-Henseleit solution of 37° C. (119 mM NaCl/4.7 mM KCl/1.1 mM KH2PO4/1.2 mM MgSO4/25 mM NaHCO3, pH 7.4) in which a mixed gas of 95% O2-5% CO2 was aerated, then a static tension of 1.0 g was applied and the ring specimens were stabilized for 60 minutes. […] The change in tension was measured and recorded by using a transducer (UFER UM-20, Iwashiya Kishimoto Ika Sangyo Co., Ltd.), the dilation rate (%) was calculated by equation (1) hereinafter, and the mean value±standard error (Mean±S. E.) was determined by repeating the test results three times. […]

Compound: CCC(=O)OCC[N+](C)(C)C [PrCh, propionylcholine]
- blood pressure-lowering effect [1]: blood pressure-lowering effect is shown

Compound: CC(=O)OCC[N+](C)(C)C [AcCh, acetylcholine]
- effective daily dose of AcCh [2]: 1e-09 mol/kg
- AcCh remaining [3]: ≥ 97%
- effective daily intake of AcCh causing a blood pressure lowering effect [4]: 3.7e-09 mol
- lower limit of the daily effective dose for humans (humans): 3.36e-08 mol
- upper limit of the daily human effective dose (humans): 3.36e-06 mol

Compound: NCCCC(=O)O [γ-aminobutyric acid (GABA), γ-aminobutyric acid]
- effect on blood vessels ([5]; 4.8 μg/mL): no effect on blood vessels was observed

Compound: CCCC(=O)OCC[N+](C)(C)C [BuCh, butyrylcholine]
- blood pressure-lowering effect [1]: blood pressure-lowering effect is shown

Compound: O=C(/C=C/c1ccc(O)c(O)c1)O[C@@H]1C[C@](O)(C(=O)O)C[C@@H](O)[C@H]1O [Chlorogenic acid]
- effect on blood vessels ([5]; 11 μg/mL): no effect on blood vessels was observed
